Tests used:
TNFα = test: Inflammation: reconstructed human epidermis/PBMC, MSD U-PLEX, TNFα; assay type: cell-based
Experimental: (§1) Potential immune modulatory effects were determined on reconstructed human epidermis (RHE) using a 3D Skin Modell (Cell systems). In the first step the skin patches are stimulated with specific controls and stimuli for a defined time period. In this context it had to be considered that different stimuli require different incubation times. The incubation with heat inactivated C.acnes (10^7 cells/approach) as well as the direct incubation with the test substances (AHE/FA/BIS) was performed for 16h at 37° C. The AHE test substances comprised AHE solutions, comprising either 1%, 2% or 5% AHE in PBS, generated as described in Example 8. The incubation with the positive control (5% SDS) was performed for 20 min (37° C.). After the primary stimulation step skin patches were washed (PBS 3×300 μl) and subjected to a regeneration phase (24h/37° C.) in presence of the indicated substances (CM/AHE/FA/CH/BIS). After this incubation phase the culture medium of each approach was isolated and used to stimulate human PBMCs. Hereby 100 μl of the RHE culture was added cultures of human PBMCs (1×10^6 cells in 300 μl culture medium) and incubated for additional 16 h (37° C.). After this incubation step, PBMCs were separated by centrifugation and the supernatant was saved for the MSD multiplexing platform. In parallel the cells of the RHE culture were subjected to cell lysis (1% SDS, 30 min/4° C. agitation). Cell extracts were saved for the MSD multiplexing platform.
(§2) Using the MSD U-PLEX it is possible to create an individualized multiplex assays for any combination of analytes. Hereby biotinylated capture reagents are coupled to U-PLEX Linkers. The U-PLEX Linkers then self-assemble onto unique spots on the U-PLEX plate. After analytes in the sample bind to the capture reagents, detection antibodies conjugated with electro-chemiluminescent labels (MSD GOLD SULFO-TAG) bind to the analytes to complete the sandwich immunoassay. Using this technology, the following markers were immobilized:
(§3) U-PLEX Human IFN-γ, U-PLEX Human IL-16, U-PLEX Human IL-2, U-PLEX Human IL-4, U-PLEX Human IL-5, U-PLEX Human IL-6, U-PLEX Human IL-8, U-PLEX Human IL-12p70, U-PLEX Human IL-13, U-PLEX Human IL-17A, U-PLEX Human IL-17F, U-PLEX Human IL-22, U-PLEX Human IL-23, U-PLEX Human TNF-α. U-PLEX Human TGF-β1. All steps were performed according to the supplier's protocol.
(§4) As described above, the Reconstructed human epidermis (RhE) was stimulated with the indicated substances and stimuli (Sample # Description, Tables 11-21) for 16 h. Upon this step the RhE was washed and in incubated in a second line with the indicated substances or culture medium. As controls, the RhE was treated in the first line with PBS and subsequently with culture medium. As further controls the PBMCs were treated with culture medium alone, with heat inactivated C. acnes and with pooled supernantant (SN) of the RhEs before stimulation. For Mesoscale analysis, the supernatant of the PBMC culture (PBMCs) was compared with a cell extract of the RhE prepared after the individual incubation steps (RhEs) and the supernatant of the RhEs after the stimulation steps (SN RhEs). RhE treated in the first and second line with culture medium (Rhe NC) can be used as negative control in all settings.

IL-1β = test: Inflammation: reconstructed human epidermis/PBMC, MSD U-PLEX, IL-1β; assay type: cell-based
Experimental: as §1, §2, §3, §4

IL-4 = test: Inflammation: reconstructed human epidermis/PBMC, MSD U-PLEX, IL-4; assay type: cell-based; conditions: PBMCs (supernatant)
Experimental: as §1
as §2, with “immobilized: […]” for “immobilized:”

IL-5 = test: Inflammation: reconstructed human epidermis/PBMC, MSD U-PLEX, IL-5; assay type: cell-based
Experimental: as §1, §2, §3, §4

IL-6 = test: Inflammation: reconstructed human epidermis/PBMC, MSD U-PLEX, IL-6; assay type: cell-based
Experimental: as §1, §2, §3, §4

IL-8 = test: Inflammation: reconstructed human epidermis/PBMC, MSD U-PLEX, IL-8; assay type: cell-based
Experimental: as §1, §2, §3, §4

IFN-γ = test: Inflammation: reconstructed human epidermis/PBMC, MSD U-PLEX, IFN-γ; assay type: cell-based
Experimental: as §1, §2, §3, §4

IL-12p70 = test: Inflammation: reconstructed human epidermis/PBMC, MSD U-PLEX, IL-12p70; assay type: cell-based
Experimental: as §1, §2, §3
As described above, the Reconstructed human epidermis (RhE) was stimulated with the indicated substances and stimuli (Sample # Description, Tables 11-21) for 16 h. Upon this step the RhE was washed and in incubated in a second line with the indicated substances or culture medium. As controls, the RhE was treated in the first line with PBS and subsequently with culture medium. […]

IL-13 = test: Inflammation: reconstructed human epidermis/PBMC, MSD U-PLEX, IL-13; assay type: cell-based; conditions: PBMCs (supernatant)
Experimental: as §1
as §2, with “immobilized: […]” for “immobilized:”

[1] = system: human Keratinocyte cell line (HaCat); test: Wound healing: scratch of HaCat keratinocyte monolayer, regeneration over 72 h; assay type: cell-based; conditions: EGF 10 ng/ml; within 72 hours
Experimental: (§5) A human Keratinocyte cell line (HaCat) was cultivated in 6 well plates to reach a dense cell layer. Subsequently the monolayer was injured with a mechanical device leading to a cross formed scratch in the monolayer. Upon scratching cells were washed once with PBS and treated with the test substances outlined above as well as with appropriate controls. The ingrowth of cells was monitored/documented for another 72 hours to the point where the cross formed injury of the monolayer was recovered with cells. At that point cells were washed and harvested. Cell extracts were generated by treatment with PBS/1% Triton X100 (30 min on ice). Subsequently cell extracts were analysed by SDS-PAGE/Western Blotting using antibodies directed towards the […] markers E-Cadherin and Paxillin (FIG. 10 and FIG. 11).
Cells were treated with AHE solutions, comprising either 1% or 5% AHE in PBS (phosphate buffered saline). The dry extract was generated as described in Example 1, and then dissolved in PBS at 37° C. for 72 hours using a weight/volume ratio of 0.1 g/mL, 0.2 g/mL or 0.5 g/mL, respectively.
For comparison, cells were also treated with Fulvic Acid and Charcoal, EGF was used as positive control, Medium without active substance was used as negative control.

Paxillin = test: Western blot of Paxillin in scratched HaCat cells; assay type: cell-based, human; conditions: comparators: EGF; Fulvic Acid (1% per FIG. 10)
Experimental: (§6) FIG. 10: HaCat cells were cultured as described. 72h after mechanical disruption, cells were lysed (PBS/1% Triton X100, 30 min, 4° C.) and subsequently subjected to SDS-PAGE/Western Blotting. Cell adhesion markers were determined with specific antibodies directed towards cell adhesion markers E-Cadherin and Paxillin. Reactivities were normalized using an antibody directed against the housekeeping protein Actin.
as §6, with “11:” for “10:”, “Paxillin.” for “Paxillin. Reactivities were normalized using an antibody directed against the housekeeping protein Actin.”
as §5, with “Upon scratching cells were washed once with PBS and treated with the test substances outlined above as well as with appropriate controls.” left out, “At that point cells were washed and harvested. Cell extracts were generated by treatment with PBS/1% Triton X100 (30 min on ice).” left out, “11). […]” for “11).”

Keratin 10 = test: Skin barrier: Western blot of Cytokeratin 10 in HaCat 3-dimensional culture; assay type: cell-based, human; conditions: positive control EGF
Experimental: FIG. 13: Western Blot Analysis with anti-Cytokeratin 10 was performed as described. The primary antibody (Keratin 10 (KRT10): Cusabio Technology CSB-PA445987) was used in a dilution of 1:1000. After the primary incubation step binding of the primary antibody was visualized with an anti-rabbit-IG conjugated to horse raddish peroxidase. Detection of Cytokeratin-10 with an apparent MW of 58 kDa was visualized using the ECL Technology in combination with a BioRad Gel documentation system.
(§7) To determine the effects of the Alpine Heilmoor Extract on the stability of the membrane barrier, human Keratinocytes (HaCat) were analysed in a 3-dimensional cell culture system. Hereby, cells (5×10^4/insert) were seeded on culture inserts of the system and cultivated in 24 well plates for 14 days with medium exchange in 3-day intervals and permanent monitoring of the TEER value. Reaching a constant TEER value cells were stimulated with heat inactivated C. acnes (10^7 cells/well) for 16 h. Subsequently, cells were washed and incubated with described 2nd line substances (i.e. AHE solutions, comprising either 1%, 2% or 5% AHE in PBS, generated as described in Example 8) for 24 hours. […]
(§8) Effects of the indicated stimuli/second line substances were evaluated by determination of the expression levels of membrane markers Cytokeratin 10/Cytokeratin 16/Fillagrin and Ki67. […]

Keratin 16 = test: Skin barrier: Western blot of Cytokeratin 16 in HaCat 3-dimensional culture; assay type: cell-based, human
Experimental: FIG. 14: Western Blot Analysis with anti-Cytokeratin 16 was performed as described. The primary antibody (Keratin 16 (KRT16): Cusabio Technology CSB-PA012515LA01Hu) was used in a dilution of 1:500. After the primary incubation step binding of the primary antibody was visualized with an anti-rabbit-IG conjugated to horse raddish peroxidase. Detection of Cytokeratin-16 with an apparent MW of 51 kDa was visualized using the ECL Technology in combination with a BioRad Gel documentation system.
as §7, §8

[2] = system: human colorectal cells (CaCo2); test: Membrane barrier enhancement: TEER of CaCo2 3-dimensional culture; assay type: cell-based; conditions: EGF
Experimental: To determine the effects of the test substances on the stability on the human gut barrier, human colorectal cells (CaCo2) were analysed in a 3-diemsional cell culture system. Cells (5×10^4/insert) were seeded on culture inserts of the system and cultivated in 24 well plates for 14 days with medium exchange in 3-day intervals and permanent monitoring of the TEER value. […] Subsequently, cells were washed and incubated with described 2nd line substances (i.e. AHE solutions, comprising either 1%, 2% or 5% AHE in PBS, generated as describe din Example 8) for 24 hours. After this step cells were washed and cell extracts were prepared by incubation with PBS/1% Triton X100. Cell extracts are ready for SDS-PAGE/Western Blotting.

[3] = PBMCs (supernatant), RhE 5% SDS, then culture medium
[4] = RhE 5% SDS, then culture medium
[5] = SN RhEs, RhE 5% SDS, then culture medium
[6] = PBMCs (supernatant), RhE C. acnes-stimulated, then substance, 1%
[7] = PBMCs (supernatant), RhE without C. acnes, 1%
[8] = SN RhEs, RhE C. acnes-stimulated, then substance, 1%
[9] = SN RhEs, RhE without C. acnes, 1%
[10] = RhE C. acnes-stimulated, then substance, 1%
[11] = RhEs (cell extract), RhE without C. acnes, 1%

CCCCCCCCCCCCOS(=O)(=O)[O-].[Na+] [Rhe PC, SDS]
TNFα concentration (TNFα; [3]): 24.0 pg/mL | IL-1β concentration (IL-1β; [3]): 1133 pg/mL | IL-4 concentration (IL-4; [4]): 9.0 pg/mL | IL-5 concentration (IL-5; [3]): 25.4 pg/mL | IL-5 concentration (IL-5; [5]): 1.0 pg/mL | IL-6 concentration (IL-6; [3]): 12909.3 pg/mL | IL-6 concentration (IL-6; [5]): 0.3 pg/mL | IL-8 concentration (IL-8; [3]): 43111.6 pg/mL | IL-8 concentration (IL-8; RhEs (cell extract), RhE 5% SDS, then culture medium): 33.5 pg/mL | IL-8 concentration (IL-8; [5]): 77.2 pg/mL | INF-y concentration (IFN-γ; [3]): 114.7 pg/mL | IL-12p70 concentration (IL-12p70; [3]): 63.0 pg/mL | IL-13 concentration (IL-13; [4]): 220.6 pg/mL

EGF: positive control (10 ng/ml in Example 8)
regeneration of scratched keratinocyte monolayer [1]: regenerated well | expression of cell adhesion molecule Paxillin (Paxillin): also observed | Cytokeratin 10 band (58 kDa) (Keratin 10): induction | Cytokeratin 16 specific band (51 kDa) (Keratin 16; EGF): detected | anti-Cytokeratin 16 reactive protein complex at about 75 kDa (Keratin 16; positive control EGF): visible | TEER value ([2]; D15 (1 d after stimulation with IL1alpha/TNF-alpha)): 4800 Ω/cm^2 | TEER value ([2]; D15 (non stimulated controls)): 4000 Ω/cm^2 | TEER value ([2]; D17 (after regeneration phase with extracts: non stimulated controls)): 7200 Ω/cm^2 | TEER value ([2]; D17 (after regeneration phase with extracts: stimulated skin)): 9600 Ω/cm^2

CC(C)=CCC[C@](C)(O)C1CC=C(C)CC1 (stereo partly shown) [Bisabolol]
TNFα concentration (TNFα; [6]): 51.6 pg/mL | TNFα concentration (TNFα; [7]): 29.8 pg/mL | TNFα concentration (TNFα; [8]): 8.6 pg/mL | TNFα concentration (TNFα; [9]): 17.1 pg/mL | IL-1β concentration (IL-1β; [6]): 1525 pg/mL | IL-1β concentration (IL-1β; [7]): 1277 pg/mL | IL-1β concentration (IL-1β; [8]): 8.5 pg/mL | IL-1β concentration (IL-1β; [9]): 5.4 pg/mL | IL-4 concentration (IL-4; [10]): 10.1 pg/mL | IL-4 concentration (IL-4; RhE without C. acnes, 1%): 9.1 pg/mL | IL-5 concentration (IL-5; [6]): 24.1 pg/mL | IL-5 concentration (IL-5; [7]): 18.2 pg/mL | IL-5 concentration (IL-5; [8]): 1.1 pg/mL | IL-5 concentration (IL-5; [9]): 0.0 pg/mL | IL-6 concentration (IL-6; [6]): 13038.0 pg/mL | IL-6 concentration (IL-6; [7]): 12302.5 pg/mL | IL-6 concentration (IL-6; [8]): 75.1 pg/mL | IL-6 concentration (IL-6; [9]): 30.8 pg/mL | IL-8 concentration (IL-8; [6]): 43765.9 pg/mL | IL-8 concentration (IL-8; [7]): 44123.3 pg/mL | IL-8 concentration (IL-8; RhEs (cell extract), RhE C. acnes-stimulated, then substance, 1%): 58.1 pg/mL | IL-8 concentration (IL-8; [11]): 68.9 pg/mL | IL-8 concentration (IL-8; [8]): 4317.3 pg/mL | IL-8 concentration (IL-8; [9]): 2459.3 pg/mL | INF-y concentration (IFN-γ; [6]): 124.4 pg/mL | INF-y concentration (IFN-γ; [7]): 90.5 pg/mL | INF-y concentration (IFN-γ; [11]): 8.3 pg/mL | INF-y concentration (IFN-γ; [8]): 13.9 pg/mL | IL-12p70 concentration (IL-12p70; [6]): 69.9 pg/mL | IL-12p70 concentration (IL-12p70; [7]): 51.3 pg/mL | IL-12p70 concentration (IL-12p70; [8]): 3.3 pg/mL | IL-13 concentration (IL-13; [10]): 186.6 pg/mL | IL-13 concentration (IL-13; RhE without C. acnes, 1%): 157.9 pg/mL

— patent US12496267B2, “Extract of organic humified materials” (priority 2019, dated 2025)
